From patent US20240027428A1, “METHOD FOR BUILDING CO-CULTURE MODEL FOR CACO-2/RAW-264.7 CELLS INDUCED BY LIPOPOLYSACCHARIDES AND APPLICATION OF CO-CULTURE MODEL” (ZHEJIANG UNIVERSITY OF TECHNOLOGY, priority 2022, published 2024)

Legend:
Caco-2 cells [1] = assay: Effect of time on uptake in a co-culture model; assay type: in vitro ADME; conditions: 0.2 mg/mL, 0-6 h
Experimental: (§1) Cell co-culture: Caco-2 cells were inoculated onto a 6-well Transwell plate at a density of 1×10^5 cells/well. A culture medium was changed once every 1-2 days in 21 consecutive days. RAW-264.7 cells were inoculated onto a side wall of a substrate at a density of 1×10^5 cells/well, and were cultured in 5% carbon dioxide at 37° C. for 48 h, to promote obvious adhesion of the cells to the side wall of the substrate. After 48 h, the culture medium was replaced with a serum-free DMEM. It was intended to evaluate the absorption of C3G liposomes in a co-culture model.
Effect of time on uptake in a co-culture model: 0.2 mg/mL of a C3G and C3G NL solution was prepared with a DMEM, 0.1 ml of a sample solution was added on an AP side, 0.6 mL of a DMEM was added on an BL side, culture was performed in an incubator at 37° C. for 1 h, 2 h, 3 h, 4 h, 5 h, and 6 h, three wells were provided at each time point, a drug-containing buffer solution was discarded after incubation, precooled PBS was added to stop cellular uptake, and cell monolayers were quickly washed for three times. […] A cell suspension was dissolved with methanol and centrifuged at 15,000 rpm for 20 min, then a supernatant was taken, and the content of C3G was determined with HPLC.

Caco-2 cells [2] = assay: Effect of concentration on transport in a co-culture model; assay type: in vitro ADME; conditions: at 1 h; not saturated
Experimental: as §1
Effect of concentration on uptake in a co-culture model: 0.02 mg/ml, 0.04 mg/ml, […], 0.08 mg/ml, and 0.1 mg/ml of C3G and C3G NL solutions were prepared, transport from an AP side to a BL side and transport from the BL side to the AP side were evaluated, 0.1 ml of a sample was added on the AP side, 0.6 ml of a sample was added on the BL side, three wells were provided, […], a culture medium was discarded after culture, and uptake was stopped using an HBSS. The content of the sample on the BL side was determined with HPLC.

[3] = tested on: inflammatory factors IL-6, IL-8, IL-1β, and TNF-α; assay: Content of inflammatory factors in LPS-induced Caco-2/RAW-264.7 co-culture model (ELISA); assay type: cell-based
Experimental: as §1
Determination of the content of inflammatory factors in a co-culture model: levels of inflammatory factors IL-6, IL-8, IL-1β, and TNF-α in a supernatant of Caco-2 cells in an LPS-induced co-culture model were determined with an ELISA kit.

Caco-2 cells [4] = assay: Effect of temperature on uptake in a co-culture model; assay type: in vitro ADME; conditions: 4° C. to 37° C. (P<0.0001)
Experimental: as §1
Effect of temperature on uptake in a co-culture model: 0.2 mg/mL of a C3G and C3G NL solution was prepared with an HBSS, 0.1 ml of a sample solution was added on an AP side, 0.6 mL of an HBSS was added on an BL side, cells were cultured in environments at 37° C. and 4° C. for 2 h, three wells were provided at each temperature, a culture medium was discarded after culture, and uptake was stopped using an HBSS. The content of a sample on the BL side was determined with HPLC.

Caco-2 cells [5] = assay: CCK-8 cytotoxicity test, viability of Caco-2 cells; assay type: cell-based; conditions: Caco-2, 24 h, 0.2 mg/mL and below (P>0.05)
Experimental: Cytotoxicity tests: according to manufacturer's instructions, cell viability was determined with a CCK-8 (Nanjing Jiancheng Biological Engineering Research Institute, Nanjing, China). In short, Caco-2 cells were treated with [MUT] liposomes at concentrations of 0.1 mg/mL, 0.2 mg/mL, 0.3 mg/mL, and 0.4 mg/mL, incubated for 24 h, then washed with PBS once, and added with a CCK-8 solution. Incubation was performed at 37° C. for 4 h, and an optical density at 450 nm was determined. […] NL and [MUT] on the viability of Caco-2 cells were inspected with a CCK-8 method. The Caco-2 cells were inoculated onto a 96-well plate having each well of 100 μL at a density of 1×10^5 cells/mL, and 200 μL of PBS was added to a peripheral well of the 96-well plate, to provide a humidity environment. […] After incubation for 24 h, 20 μL of a CCK-8 solution was added to each well, incubation was performed in an incubator at 37° C. for 1 h, and then an optical density (OD) at a wavelength of 490 nm was detected with a microplate reader and was calculated according to the following formula: Cell viability (%)=ODtreatment well/ODcontrol well×100% where the ODtreatment well represented an optical density of cells after addition of drugs, and the ODcontrol well represented an optical density of cells in a blank control.

Caco-2 cells [6] = assay: Effect of an endocytosis inhibitor on uptake/transport in a co-culture model; assay type: in vitro ADME; conditions: β-CD, chlorpromazine (CPZ), cytochalasin D (P>0.05)
Experimental: as §1
Effect of an endocytosis inhibitor on uptake in a co-culture model: 0.2 mg/mL of a C3G and C3G NL solution was prepared with an HBSS, 0.1 ml of a sample solution was added on an AP side, 0.6 mL of an HBSS was added on a BL side, an MEM, 10 mmol/L ([…]) of β-CD,10 μg/mL of chlorpromazine, 2 μmol/L (1 μg/ml) of cytochalasin D (0.1 ml) were added and sucked out after 30 min, cells were cultured in an environment at 37° C. for 1 h, three wells were provided, a culture medium was discarded after culture, and uptake was stopped using an HBSS. The content of a sample was determined with HPLC, and Papp was calculated.

Caco-2 cells [7] = assay: Transport tests for Lucifer yellow across Caco-2 monolayer in Transwell; assay type: in vitro ADME; conditions: 20 μg/mL Lucifer yellow, AP to BL, Caco-2 cultured 21 days
Experimental: Drawing of a standard curve for Lucifer yellow: 0.005 μg/mL, 0.01 μg/mL, 0.025 μg/mL, 0.05 μg/mL, 0.1 μg/mL, and 0.25 μg/mL of standard solutions for Lucifer yellow were prepared, the fluorescence intensities (an excitation wavelength: 427 nm, and an emission wavelength: 536 nm) of the standard solutions for Lucifer yellow were measured with a fluorescence spectrophotometer, and linear regression was performed with the fluorescence intensity as an ordinate and the concentration ([…]) as an abscissa. A standard curve was drawn.
Transport tests for Lucifer yellow: Caco-2 cells grew to 21 days in a Transwell, and then a culture medium was sucked and discarded. A preheated HBSS was added to both an AP side and a BL side for cleaning twice and was sucked and discarded, and then a preheated HBSS was added to perform culture under the conditions of 37° C. and 5% CO2 for 20 min. […] Under the condition of Ex=427 nm and Em=536 nm, the fluorescence intensity was measured according to a standard curve and a transport formula. A concentration and permeability coefficient of a transport solution for the Lucifer yellow CH on the BL side were calculated. […]

Molecule: OC[C@H]1O[C@@H](Oc2cc3c(O)cc(O)cc3[o+]c2-c2ccc(O)c(O)c2)[C@H](O)[C@@H](O)[C@@H]1O [C3G, Cyanidin-3-glucoside]
- time of maximum uptake amount in Caco-2 cells (Caco-2 cells [1]): 2 h
- transport amounts in Caco-2 cells with concentration (Caco-2 cells [2]): increased with the increase of concentration
- production of inflammatory factors after pretreatment [3]: reduced in a dose-dependent manner
- uptake amounts in Caco-2 cells with increase of temperature (Caco-2 cells [4]): increased significantly
- change of cell viability compared with blank group (Caco-2 cells [5]): did not change significantly
- transport amounts after addition of endocytosis inhibitor compared with blank group (Caco-2 cells [6]): no significant changes

Molecule: Lucifer yellow
- Papp (apparent permeability coefficient) (Caco-2 cells [7]): 0.0303 ×10⁻⁶ cm/s
